Test results reported in publication PMC10726355, “Small Molecule Ligands of the BET-like Bromodomain, SmBRD3, Affect Schistosoma mansoni Survival, Oviposition, and Development” (Journal of Medicinal Chemistry, 2023).
Values after ≈ are worked out from the molar mass of the structure shown. “Also recorded” adds a separate entry of the source. Where two headings read alike, the source gives them in different places.

Assays:
SmBRD3(2) = SmBRD3(2) (Schistosoma mansoni, UniProt A0A5K4ESD7); assay: biochemical; assay type: binding
SmBRD3(1,2) [1] = target: SmBRD3(1,2) (Schistosoma mansoni, UniProt A0A5K4ESD7); assay: biochemical; assay type: binding; details: for N number, binding to SmBRD3(1,2): ITC stoichiometry, n=1 ± error of curve fit
S. mansoni schistosomula = assay: Ex vivo schistosomula screening (Roboworm high content imaging); parameters: species or system Schistosoma mansoni; details: 20 μM (Figure 7) or 10 μM (Figure S48); 72 h
Method: A high-throughput imaging platform that quantifies both phenotype and motility ex vivo, was used to screen compounds against schistosomula; their effects were assessed as previously described.[20] Briefly, the schistosomula stage of S. mansoni was obtained by mechanical transformation of cercariae, dispensed into 384-well tissue culture plates, and dosed with 20 μM (Figure 7) or 10 μM (Figure S48) of each compound. Following 72 h coincubation of the schistosomula and compound, the plate was subjected to high content imaging to quantify the effects of each compound.
S. mansoni schistosomula were obtained by mechanical transformation from cercariae as previously described,[64] distributed in 384-well tissue culture plates (PerkinElmer, catalogue number 6007460) at 120 parasites/well and dosed with the selected compounds as previously reported.[65]−[68] For this study, each compound (as 10 mM DMSO stock solution) was initially tested at two concentration points (20 and 10 μM final concentration, in duplicates) in at least four independent screens (Z′ scores above 0.35).[69] Each screen contained both positive (10 μM auranofin (AUR) in 0.625% DMSO) and negative (0.625% DMSO) controls. […] Following 72 h schistosomula/compound coincubation, the plate was analyzed by the Roboworm platform.[70] EC50 values were calculated from the titrated concentrations by nonlinear regression, after log transformation of concentrations and data normalization using GraphPad Prism 7.02.

SmBRD3(1,2) [2] = assay: Differential scanning fluorimetry (thermal shift), SmBRD3(1,2); details: DSF; 50 μM compound
Method: Reported ΔTm values are the mean of two replicates.
The differential scanning fluorimetry (DSF) or thermal stability assays were carried out following the protocol described by Niesen et al. and data were analysed as described previously.8 Thermal melting experiments were carried out using the Mx3005p real-time PCR machine (Agilent) and employing a protein concentration of 5 μM for the schistosomal bromodomains [SmBRD3(2),
the DMSO content was 0.5% (v/v). Buffer conditions were 50 mM HEPES buffer, pH 7.5, 500 mM NaCl and a 1:500 dilution of SYPRO® Orange (Invitrogen, CA) was used. The 96-well PCR plates were sealed and centrifuged for 2 min at 1000 rpm at 25 °C before measurement. The temperature was raised with a step of 1 °C per 30 s from 25 °C to 85 °C, and fluorescence readings were taken
difference between the transition midpoints of sample and reference wells containing protein without inhibitor in the same plate. Reported ΔTm values are the mean of two replicates.
Isothermal titration calorimetry experiments were performed on a MicroCal PEAQ-ITC Automated or Manual (Malvern) and analysed with the MicroCal PEAQ-ITC Analysis software (Malvern 1.1.0.1262) using a single binding site model. For each experiment, the first data point was removed from the analysis. The proteins were dialysed at 4 °C overnight in a Slide-A-LyzerR MINI Dialysis Device (2000 MWCO; Thermo Scientific Life Technologies) into 50 mM HEPES, 150 mM NaCl containing 0.2% DMSO; pH 7.4. Proteins were centrifuged to remove aggregates (3 min, 3000 rpm, 25 °C).
Compounds were dissolved as a DMSO stock solution and diluted to the required concentration using dialysis buffer (DMSO free) and to a final DMSO concentration of 0.2% (unless otherwise specified). The cell was stirred at 750 rpm, reference power set to 5 μcal/s and temperature held at 25 °C. After an initial delay of 60 s, 19 x 2 μL injections (first injection 0.4 μL) were performed with a spacing of 180 s. […]

S. mansoni miracidia = assay: Ex vivo miracidia to sporocyst transformation screening; parameters: species or system Schistosoma mansoni; details: 0.5-25 μM in 1% DMSO; 48 h
Method: S. mansoni miracidia were obtained by hatching of schistosome eggs as previously described.[73] The resulting miracidial suspension was collected, washed with Chernin’s balanced salt solution (CBSS),[73] and enumerated prior to being used for ex vivo miracidia to sporocyst screens as previously reported.[66],[73] Each compound was tested at 0.5, 2.0, 5.0, 10, and 25 μM final concentrations (in 1% DMSO). Each treatment was set up in duplicate (15–25 miracidia/well). Each titration was performed in three independent experiments (two technical replicates per data point). Parasites cultured in CBSS (containing 1% DMSO) were included as negative controls. After 48 h incubation at 26 °C in the dark, dead, fully transformed and partially transformed miracidia were enumerated as previously described.[74],[75]

[3] = Compound conversion in media with or without worms (LCMS); assay type: in vitro ADME; details: media in the presence or absence of worms; 20 μM; 24 h
Method: As the low solubility of the ethyl ester derivatives prevented us from determining their affinity for SmBRD3(2) using ITC, it is possible that these compounds are themselves inhibitors of SmBRD3(2). Alternatively, the ethyl esters could function as pro-drugs that release the corresponding acid in the parasite. To investigate compound permeability, adult worms were treated with 20 μM of the acid 15 or the ethyl ester 22 for 24 h, and then the media exchanged three times. The worms were then lysed and the levels of the acid 15 or the ethyl ester 22 were determined using LCMS (Figure S50).
Figure S-52. A. Estimation of the concentration of 15 and 22 in media after incubation with 22 in the presence and absence of S. mansoni. The concentration estimations were calculated as an average (presence of worm n=3, no worm n=2) from the analysis media in the presence (5 worms per well) or absence of worms, with error bars representing the s.e.m. B. Estimation of the concentration of 1 and 2 in media after incubation with 2 in the presence and absence of S. mansoni. The concentration estimations were calculated as an average (presence of worm n=2, no worm n=1) from the analysis of media in the presence (5 worms per well) or absence of worms with error bars representing the […]

chromLogD assay = assay type: physicochemical; details: reversed phase HPLC column (Gemini NX C18), pH 7.4
Method: Lipophilicity: a chromLogD assay was carried out by the Physchem Team, Discovery Analytical, NCE Molecular Discovery at GSK. The chromatographic hydrophobicity index (CHI)[46],[47] values were measured using reversed phase HPLC column (50 × 2 mm […] Gemini NX C18, Phenomenex, UK) with fast acetonitrile gradient at starting mobile phase of pHs 2, 7.4, or 10.5. CHI values were derived directly from the gradient retention times using calibration parameters for standard compounds. The CHI value approximates to the volume % organic concentration when the compound elutes. CHI was linearly transformed into a chromLogD[48] value by least-squares fitting of experimental CHI values to calculated cLogP values for over 20000 research compounds.

CAD solubility assay = assay type: physicochemical; details: phosphate buffered saline, pH 7.4, phosphate buffered saline at pH 7.4; read-out: Aqueous Solubility by CAD
Method: A CAD solubility assay was carried out by Physchem Team, Discovery Analytical, NCE Molecular Discovery at GSK. 5 μL of 10 mM DMSO stock solution was diluted to 100 μL with pH 7.4 phosphate buffered saline, equilibrated for 1 h at room temperature, and filtered through Millipore MultiscreenHTS-PCF filter plates (MSSL BPC). The filtrate was quantified using a suitably calibrated charged aerosol detector.[45]

S. mansoni adult worms = assay: Ex vivo adult worm screening (motility, IVLEs, pairing); parameters: species or system Schistosoma mansoni; details: 72 h
Method: S. mansoni adult worms were recovered by hepatic portal vein perfusion from TO mice (Mus musculus HsdOLa:TO - Tuck Ordinary; Envigo, UK) that were percutaneously infected 7 weeks earlier with 180 cercariae.[65],[71] Following perfusion, schistosomes were washed and processed as previously described.[65],[66] Subsequently, schistosome pairs were seeded into 48 well tissue culture plates (1 worm pair/well, in duplicate) and dosed with the compounds (20 μM in 0.2% DMSO). DMSO (0.2%) and praziquantel (10 μM in 0.1% DMSO) were also included as negative and positive controls, respectively. Parasite motility was assessed by a digital image processing-based system (WormassayGP2),[66] modified after Wormassay.[72]In vitro laid eggs (IVLEs) were enumerated and the presence or absence of paired worms was noted.

HsBRD4(1) = target: T1, HsBRD4(1) (Homo sapiens, UniProt O60885); assay: Isothermal titration calorimetry (ITC), HsBRD4(1); assay type: binding; details: single value ± error of the curve fit
T1 construct: HsBRD4(1) Kd (ITC, nM); made in house; host or cells: E. coli BL21(DE3)

Question: Which “SmBRD3(2) Kd” value (SmBRD3(2)) does the source give for “(+)-JQ1 [(+)-JQ1 (5), reference compound]” here?
Answer: Its value is “no binding detected; also recorded: No detectable binding”.

Question: What about the “SmBRD3(2) Kd, Repeat 1” value (SmBRD3(2)) of the same compound?
Answer: The value was “No binding”.

Question: What about the “SmBRD3(1,2) pKd” value (SmBRD3(1,2) [1]; ITC) of the same compound?
Answer: The value was 6.4.

Question: What about the “N number, binding to SmBRD3(1,2)” value (SmBRD3(1,2) [1]) of the same compound?
Answer: Its value is 3.87 ± 7.0 e-2.

Question: And the Kd (SmBRD3(1,2) [1]; ITC, n = 1 ± error of the curve fit, read-out: SmBRD3(1,2) Kd)?
Answer: The Kd was 0.445 ± 0.106 µM.

Question: And the “Effect on schistosomula phenotype” value (S. mansoni schistosomula)?
Answer: The value was “showed activity”.

Question: And the “Thermal stabilisation (ΔTm) of SmBRD3(1,2)” value (SmBRD3(1,2) [2])?
Answer: Its value is “stabilize SmBRD3(1,2)”.

Question: What about the “Toxicity to miracidia (dead parasites)” value (S. mansoni miracidia) of the same compound?
Answer: Its value is “toxic at the higher concentrations”.

Question: With CC(=O)Oc1cc(-c2c(C)noc2C)cc(C(O)c2ccccc2)c1 (stereo not drawn) [OXFBD03 (2), OXFBD03, reference compound] as the compound, how does the “SmBRD3(2) Kd, Repeat 1” value (SmBRD3(2); ITC, single run ± error of curve fit, Repeat 1) read?
Answer: The value was “No binding”.

Question: And the “SmBRD3(2) Kd” value (SmBRD3(2); ITC, single value ± error of the curve fit or mean of 2-3 repeats ± s.e.m.)?
Answer: The value was “No detectable binding”.

Question: What about the “N number, binding to SmBRD3(1,2)” value (SmBRD3(1,2) [1]) of the same compound?
Answer: Its value is 1.17 ± 1.7e-2.

Question: And the Kd (SmBRD3(1,2) [1]; SmBRD3(1,2) Kd, ITC, n = 1 ± error of the curve fit)?
Answer: Its Kd is 0.675 ± 0.0976 µM.

Question: What about the Kd (SmBRD3(1,2) [1]; SmBRD3(1,2) pKd, ITC) of the same compound?
Answer: The Kd was 0.631 µM.

Question: What about the “Conversion in media (ester hydrolysis / deacetylation)” value [3] of the same compound?
Answer: The value was “rapidly deacetylated”.

Question: What does the source list for CCOC(=O)c1ccc(-c2ccc3c(c2)[C@@H](Nc2ccc4ccsc4c2)C[C@@H](C)N3C(C)=O)cc1 [Compound 17, Ethyl 4-{(2R,4S)-1-Acetyl-4-[(1-benzothiophen-6-yl)amino]-2-methyl-1,2,3,4-tetrahydroquinolin-6-yl}benzoate]?
Answer: SmBRD3(2) Kd (SmBRD3(2)): No binding; SmBRD3(2) Kd, Repeat 1 (SmBRD3(2)): No binding; chromatographic logD (chromLogD assay): 7.61; Effect on schistosomula motility (S. mansoni schistosomula): did not have substantial effects; Effect on schistosomula phenotype (S. mansoni schistosomula): did not have substantial effects; solubility at 1 h (CAD solubility assay): 1 µM (≈ 0.485 µg/mL); Effect on adult worm movement (S. mansoni adult worms; 20 μM in 0.2% DMSO): some modest effects; Effect on egg count (in vitro laid eggs) (S. mansoni adult worms; 20 μM): some modest effects; Toxicity to miracidia (dead parasites) (S. mansoni miracidia): toxic at the higher concentrations

Question: For CC(=O)N1c2ccc(-c3ccc(C(=O)O)cc3)cc2[C@H](Nc2ccc3ccsc3c2)C[C@@H]1C [Compound 9, 4-{(2S,4R)-1-Acetyl-4-[(1-benzothiophen-6-yl)amino]-2-methyl-1,2,3,4-tetrahydroquinolin-6-yl}benzoic Acid], which “N number, binding to SmBRD3(2), Repeat 1” value (SmBRD3(2); ITC stoichiometry, Repeat 1) is on record?
Answer: The value was 1.52 ± 2.2e-2.

Question: What about the “N number, binding to SmBRD3(2), Repeat 2” value (SmBRD3(2); ITC stoichiometry, Repeat 2) of the same compound?
Answer: The value was 1.57 ± 3.4e-2.

Question: And the “N number, binding to SmBRD3(2), Repeat 3” value (SmBRD3(2); ITC stoichiometry, Repeat 3)?
Answer: Its value is 1.64 ± 3.3e-2.

Question: What about the “N number, binding to SmBRD3(2), Mean” value (SmBRD3(2); ITC stoichiometry, mean of repeats) of the same compound?
Answer: Its value is 1.58.

Question: And the Kd (SmBRD3(2); ITC, read-out: SmBRD3(2) pKd (converted))?
Answer: Its Kd is 0.631 µM.

Question: What about the Kd (SmBRD3(2); ITC, single run ± error of curve fit, Repeat 1, read-out: SmBRD3(2) Kd, Repeat 1) of the same compound?
Answer: Its Kd is 0.572 ± 0.103 µM.

Question: And the Kd (SmBRD3(2); ITC, single run ± error of curve fit, Repeat 2, read-out: SmBRD3(2) Kd, Repeat 2)?
Answer: The Kd was 0.778 ± 0.179 µM.

Question: And the Kd (SmBRD3(2); ITC, single run ± error of curve fit, Repeat 3, read-out: SmBRD3(2) Kd, Repeat 3)?
Answer: The Kd was 0.753 ± 0.176 µM.

Question: And the Kd (SmBRD3(2); read-out: SmBRD3(2) Kd)?
Answer: The Kd was 0.701 ± 0.0649 µM.

Question: What about the “HsBRD4(1) Kd (ITC)” value (HsBRD4(1)) of the same compound?
Answer: The value was “high affinity”.

Question: And the Kd (HsBRD4(1))?
Answer: The Kd was 0.0644 ± 0.0207 µM.

Question: What about the chromatographic logD (chromLogD assay) of the same compound?
Answer: Its chromatographic logD is 2.83.

Question: And the solubility at 1 h (CAD solubility assay)?
Answer: Its solubility at 1 h is at least 259 µM.
